This is an account of results in PMC10412597, “Small molecule branched-chain ketoacid dehydrogenase kinase (BDK) inhibitors with opposing effects on BDK protein levels” (Nature Communications, 2023).

One test addresses Kdr Kinase (VEGFR2) (Homo sapiens, UniProt P35968). The test can be described thus: biochemical. The arrangement: Cerep Bioprint off-target panel, enzyme or kinase inhibition. The protocol:
(§1) To discover a potent and selective BDK inhibitor, a subset of the Pfizer compound collection was screened. […] Off target activity was assessed in both CEREP and kinase panels (Supplementary Tables 2, 3).

The next test deals with T1, Cannabinoid CB1 (Homo sapiens, UniProt P21554).
T1 construct: gene CNR1
T1 sequence (P21554 whole entry): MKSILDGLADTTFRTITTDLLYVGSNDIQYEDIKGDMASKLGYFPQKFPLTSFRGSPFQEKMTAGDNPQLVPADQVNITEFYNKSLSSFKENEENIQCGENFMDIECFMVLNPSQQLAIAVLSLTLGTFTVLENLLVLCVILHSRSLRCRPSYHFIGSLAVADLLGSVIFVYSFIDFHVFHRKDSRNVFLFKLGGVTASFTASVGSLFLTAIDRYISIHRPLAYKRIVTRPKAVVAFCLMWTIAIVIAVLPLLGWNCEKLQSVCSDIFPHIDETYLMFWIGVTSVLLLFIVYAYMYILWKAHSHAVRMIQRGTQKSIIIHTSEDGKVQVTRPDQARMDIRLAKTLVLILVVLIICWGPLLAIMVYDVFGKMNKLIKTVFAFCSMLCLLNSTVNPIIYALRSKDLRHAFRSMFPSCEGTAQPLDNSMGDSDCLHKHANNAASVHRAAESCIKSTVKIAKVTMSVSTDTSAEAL
The test can be described thus: cell-based. The arrangement: Cerep Bioprint off-target panel, functional receptor agonism or antagonism. As for the experimental part: as §1

Sequence of Kdr Kinase (VEGFR2) (P35968 whole entry): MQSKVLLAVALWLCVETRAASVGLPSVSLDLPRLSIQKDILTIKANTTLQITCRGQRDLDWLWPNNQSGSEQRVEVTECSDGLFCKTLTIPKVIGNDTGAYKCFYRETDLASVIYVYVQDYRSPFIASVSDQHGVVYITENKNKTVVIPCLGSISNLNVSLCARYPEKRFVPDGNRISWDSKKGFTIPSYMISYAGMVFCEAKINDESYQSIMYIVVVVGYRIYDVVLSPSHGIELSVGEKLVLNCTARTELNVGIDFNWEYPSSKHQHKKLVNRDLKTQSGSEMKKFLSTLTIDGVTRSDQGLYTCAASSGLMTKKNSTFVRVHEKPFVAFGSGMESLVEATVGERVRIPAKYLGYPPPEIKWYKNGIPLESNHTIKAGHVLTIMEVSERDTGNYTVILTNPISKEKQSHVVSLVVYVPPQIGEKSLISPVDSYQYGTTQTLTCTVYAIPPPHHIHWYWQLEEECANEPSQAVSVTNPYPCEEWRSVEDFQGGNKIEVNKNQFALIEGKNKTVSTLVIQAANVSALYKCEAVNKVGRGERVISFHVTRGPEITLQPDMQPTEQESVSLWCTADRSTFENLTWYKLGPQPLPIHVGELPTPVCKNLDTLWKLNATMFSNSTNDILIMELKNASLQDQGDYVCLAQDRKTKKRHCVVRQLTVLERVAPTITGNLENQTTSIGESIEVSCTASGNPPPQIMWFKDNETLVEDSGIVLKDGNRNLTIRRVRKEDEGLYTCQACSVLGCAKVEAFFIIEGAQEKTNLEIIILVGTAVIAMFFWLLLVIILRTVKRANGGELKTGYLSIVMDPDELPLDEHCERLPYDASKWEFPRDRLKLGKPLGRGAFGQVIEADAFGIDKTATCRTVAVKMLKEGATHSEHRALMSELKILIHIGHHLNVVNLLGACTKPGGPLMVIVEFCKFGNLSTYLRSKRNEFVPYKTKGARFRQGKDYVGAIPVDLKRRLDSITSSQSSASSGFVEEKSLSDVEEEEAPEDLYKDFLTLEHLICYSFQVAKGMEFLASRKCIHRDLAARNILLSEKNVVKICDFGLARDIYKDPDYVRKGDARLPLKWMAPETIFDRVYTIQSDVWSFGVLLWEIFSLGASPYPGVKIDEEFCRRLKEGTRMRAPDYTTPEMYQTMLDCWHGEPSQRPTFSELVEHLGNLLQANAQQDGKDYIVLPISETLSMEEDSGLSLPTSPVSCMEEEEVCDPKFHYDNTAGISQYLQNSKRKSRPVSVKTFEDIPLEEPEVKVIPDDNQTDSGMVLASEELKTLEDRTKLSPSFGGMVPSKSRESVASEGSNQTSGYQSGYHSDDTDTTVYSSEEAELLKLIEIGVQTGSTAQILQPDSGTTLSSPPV

For the compound `O=C(O)c1sc2cc(F)sc2c1Cl` [PF-07208254, 3-chloro-5-fluorothieno[3,2-b]thiophene-2-carboxylic acid], on Kdr Kinase (VEGFR2), the IC50 – broadly, the concentration needed to halve the response being measured – came out at 76 µM. Further, on Cannabinoid CB1, the EC50 – broadly, the concentration needed to bring the measured effect to its halfway point – was 180 µM.
